Literature values, collected in patent publication US20220257611A1 (APTYS Pharmaceuticals SAS, priority 2019, published 2022).

Experiments:
[1] = in vivo
[2] = in vivo; remark: listed apart in the source

Compound | median effective analgesic dose (median value and 95% confidence interval) [1] [mg] | elimination half-life [2]
CC(=O)Nc1ccc(O)cc1 [acetaminophen, N-acetyl-p-amino-phenol] | 500 | 
CN1CCOC(c2ccccc2)c2ccccc2C1 (centres unmarked) [nefopam, 5-methyl-1-phenyl-1,3,4,6-tetrahydro-2,5-benzoxazocine] |  | four
